Reference: patent publication US20150030702A1, “NITRIC OXIDE-[…] DRESSINGS” (priority 2007, published 2015)
Read-outs that look alike come from different tables or passages of the source.

Legend:
[1] = under normal conditions; cited from earlier work
[2] = cited from earlier work
[3] = nitrite 30 mM, 10 mM hydrochloric acid, hydroquinone 30 mM (FIG. 1); followed by a further slow increase
Experimental: The pH was measured prior to addition of hydroquinone and then at time-points indicated following addition of hydroquinone.
The concentration of nitrosothiol concentration can be estimated from the absorbance reading using the molar absorption coefficient for nitrosothiols=approximately 10,000 M^−1 cm^−1.

SMILES: [N]=O [NO, nitric oxide]
- Maximum solubility in water [1]: approximately 1.7 mM

SMILES: O=NO [Nitrite, nitrite]
- pKa ([2]; at 25° C.): about 3.4
- pKa [2]: 3.4

SMILES: O=C(O)O [bicarbonic acid]
- pKa [2]: 6.3

SMILES: Oc1ccc(O)cc1 [hydroquinone, Hydroquinone]
- pH after rapid increase in the presence of hydroquinone [3]: about 5.0
